Results taken from patent US7351711B2, “Tricyclic indanyls as integrin inhibitors” (Janssen Pharmaceutical, N.V., priority 2003, dated 2008).
Where two headings read alike, the source gives them in different places.

How the values were obtained:
[1] = target: T1, human purified αVβ5 (Homo sapiens, UniProt P06756+P18084); assay: In vitro solid phase purified αvβ5 binding assay (vitronectin/αVβ5); settings: inhibition of vitronectin binding to immobilized αVβ5; read-out: Antagonist IC50 Activity αVβ5
T1 construct: purchased Chemicon International, Inc
Description: (§1) The vitronectin/αvβ3 binding assay methods were derived from Mehta et al. (Biochem J,. 1998, 330, 861). Human αvβ3 (Chemicon International Inc., Temecula, Calif.), at a concentration of 1 μg/ml dissolved in Tris buffer (20 mM Tris, 1 mM CaCl2, 1 mM MgCl2, 10 μM MnCl2, 150 mM NaCl), was immobilized on Immulon 96 well plates (Dynex Technologies, Chantilly, Va.) overnight at 4° C. Plates were washed and treated with blocking buffer (3% BSA in Tris buffer) for 2 h at 37° C. Plates were then rinsed 2 times with assay buffer comprised of Tris buffer. Synthesized compounds were added to wells in duplicate immediately prior to the addition of 2 nM vitronectin (Sigma, St. Louis, Mo.). Following a 3 hour incubation at 37° C., plates were washed 5 times in assay buffer. An anti-human vitronectin IgG rabbit polyclonal antibody (Calbiochem, San Diego, Calif.) was added (1:2000) and plates were incubated for 1 hour at room temperature. VectaStain ABC peroxidase kit reagents (Vector Laboratories, Burlingame, Calif.) employing a biotin labeled anti-rabbit IgG, were utilized for detection of bound antibody. Plates were read at 490 nm on a Molecular Devices (Sunnyvale, Calif.) microplate reader.
In Vitro Solid Phase Purified αvβ5 Binding Assay
The vitronectin/αVβ5 binding assay method was performed in the same manner as the vitronectin/αVβ3 binding assay of Example 2, with the difference that 1 μg/mL of human purified αVβ5 (Chemicon International, Inc.) was immobilized onto Immulon 96 well plates (Dynex Technologies) instead of αVβ3. All other aspects of the assay including buffers, reagents and incubation times remain unchanged.

[2] = target: T2, Human αvβ3 (Homo sapiens, UniProt P05106+P06756); assay: In vitro solid phase purified αvβ3 binding assay (vitronectin/αvβ3); settings: for IC50: read-out: Antagonist IC50 Activity αVβ3
T2 construct: purchased Chemicon International Inc., Temecula, Calif
Description: In Vitro Solid Phase Purified αvβ3 Binding Assay
as §1

T1 sequence (P06756 31-889 limits assumed): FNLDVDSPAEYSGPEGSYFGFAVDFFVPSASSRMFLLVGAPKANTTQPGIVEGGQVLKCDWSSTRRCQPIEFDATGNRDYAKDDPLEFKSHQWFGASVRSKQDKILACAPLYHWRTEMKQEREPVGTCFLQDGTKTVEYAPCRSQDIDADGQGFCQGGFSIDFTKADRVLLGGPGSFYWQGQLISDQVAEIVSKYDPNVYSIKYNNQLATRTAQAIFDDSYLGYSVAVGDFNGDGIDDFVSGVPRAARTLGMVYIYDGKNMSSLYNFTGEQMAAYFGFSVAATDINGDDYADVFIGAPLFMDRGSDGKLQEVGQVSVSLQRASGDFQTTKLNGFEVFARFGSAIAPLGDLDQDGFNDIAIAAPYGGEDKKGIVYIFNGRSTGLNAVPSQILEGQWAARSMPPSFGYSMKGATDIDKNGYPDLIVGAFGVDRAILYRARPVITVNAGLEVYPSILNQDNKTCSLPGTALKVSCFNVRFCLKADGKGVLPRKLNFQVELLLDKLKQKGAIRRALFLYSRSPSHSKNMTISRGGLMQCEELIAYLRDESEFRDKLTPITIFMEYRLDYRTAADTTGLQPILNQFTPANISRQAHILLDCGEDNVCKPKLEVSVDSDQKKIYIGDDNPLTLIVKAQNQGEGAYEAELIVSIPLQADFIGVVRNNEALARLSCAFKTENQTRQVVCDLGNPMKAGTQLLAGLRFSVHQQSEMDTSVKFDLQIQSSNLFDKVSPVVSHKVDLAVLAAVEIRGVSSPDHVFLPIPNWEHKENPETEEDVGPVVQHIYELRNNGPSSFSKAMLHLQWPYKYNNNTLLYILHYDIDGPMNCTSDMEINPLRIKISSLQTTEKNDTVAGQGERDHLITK
T1 sequence (P06756 891-1048 partner limits assumed): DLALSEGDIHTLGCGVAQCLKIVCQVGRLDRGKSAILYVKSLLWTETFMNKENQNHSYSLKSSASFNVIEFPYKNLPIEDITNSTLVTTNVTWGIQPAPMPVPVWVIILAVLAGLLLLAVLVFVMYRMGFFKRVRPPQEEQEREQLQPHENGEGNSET
T1 sequence (P18084 24-799): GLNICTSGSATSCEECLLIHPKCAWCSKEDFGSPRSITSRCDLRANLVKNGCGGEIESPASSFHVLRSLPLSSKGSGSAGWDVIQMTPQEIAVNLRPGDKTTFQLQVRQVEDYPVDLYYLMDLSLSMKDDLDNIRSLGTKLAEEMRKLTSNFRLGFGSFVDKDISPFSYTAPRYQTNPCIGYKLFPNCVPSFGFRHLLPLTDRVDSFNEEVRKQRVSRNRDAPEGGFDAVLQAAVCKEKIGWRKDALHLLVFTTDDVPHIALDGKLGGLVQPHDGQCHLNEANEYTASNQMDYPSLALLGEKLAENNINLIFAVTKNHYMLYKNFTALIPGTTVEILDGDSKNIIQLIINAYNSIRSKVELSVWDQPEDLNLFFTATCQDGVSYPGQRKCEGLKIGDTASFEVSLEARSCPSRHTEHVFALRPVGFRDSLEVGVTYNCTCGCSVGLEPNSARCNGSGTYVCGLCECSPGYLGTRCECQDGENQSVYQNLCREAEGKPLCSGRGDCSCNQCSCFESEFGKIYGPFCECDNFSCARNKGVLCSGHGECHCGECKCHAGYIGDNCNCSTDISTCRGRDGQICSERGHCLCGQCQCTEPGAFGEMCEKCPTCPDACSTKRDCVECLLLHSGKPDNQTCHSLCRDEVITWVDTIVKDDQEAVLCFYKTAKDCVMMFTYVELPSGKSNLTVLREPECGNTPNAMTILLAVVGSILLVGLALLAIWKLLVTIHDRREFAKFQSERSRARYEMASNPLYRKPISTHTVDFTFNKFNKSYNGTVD
T2 sequence (P06756 31-889 limits assumed): as the sequence (P06756 31-889 limits assumed) above
T2 sequence (P06756 891-1048 partner limits assumed): as the sequence (P06756 891-1048 partner limits assumed) above
T2 sequence (P05106 27-788): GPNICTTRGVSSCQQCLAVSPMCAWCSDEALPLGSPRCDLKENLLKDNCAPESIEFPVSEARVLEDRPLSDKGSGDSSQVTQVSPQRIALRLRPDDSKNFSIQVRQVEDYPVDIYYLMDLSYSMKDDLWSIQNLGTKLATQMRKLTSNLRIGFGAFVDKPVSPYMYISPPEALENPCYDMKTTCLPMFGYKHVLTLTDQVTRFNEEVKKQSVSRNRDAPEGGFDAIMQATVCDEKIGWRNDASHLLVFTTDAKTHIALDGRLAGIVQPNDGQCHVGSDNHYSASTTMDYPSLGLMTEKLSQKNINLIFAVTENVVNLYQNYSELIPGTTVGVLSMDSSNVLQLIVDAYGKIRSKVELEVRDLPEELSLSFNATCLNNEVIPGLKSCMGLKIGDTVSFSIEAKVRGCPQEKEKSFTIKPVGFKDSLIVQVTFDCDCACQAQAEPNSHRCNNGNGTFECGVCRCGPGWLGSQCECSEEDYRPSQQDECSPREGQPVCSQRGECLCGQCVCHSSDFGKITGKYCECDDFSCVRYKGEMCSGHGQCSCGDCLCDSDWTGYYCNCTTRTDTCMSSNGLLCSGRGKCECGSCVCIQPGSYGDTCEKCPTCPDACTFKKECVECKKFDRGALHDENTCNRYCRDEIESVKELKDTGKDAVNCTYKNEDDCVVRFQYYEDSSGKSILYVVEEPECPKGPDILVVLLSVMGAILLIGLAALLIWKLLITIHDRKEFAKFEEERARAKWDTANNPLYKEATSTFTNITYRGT

IC50 [1] | IC50 [2] | Antagonist activity αVβ3, % @ 50 μM [2] | IC50 ([2]; inhibition of 2 nM vitronectin binding to immobilized αvβ3) | SMILES
538 nM | 411 nM |  |  | O=C(O)CC1c2ccccc2C2CN(C(=O)CCCc3ccc4c(n3)NCCC4)CC12 (racemic) [Cpd 15]
 |  | 41% @ |  | O=C(O)CC1c2ccccc2C2CCN(C(=O)CCCc3ccc4c(n3)NCCC4)CC21 (stereo not drawn) [Cpd 9, [2-(4-5,6,7,8-Tetrahydro-[1,8]naphthyridine-2-yl-butyryl)-2,3,4,4a,9,9a-hexahydro-1H-indeno[2,1-c]pyridin-9-yl]-acetic acid]
5.8 ± 1.2 nM | 17 ± 3 nM |  |  | O=C(O)C[C@H]1c2ccccc2[C@@H]2CN(C(=O)CCc3ccc4c(n3)NCCC4)C[C@H]12 [Cpd 14, [2-(3-5,6,7,8-Tetrahydro-[1,8]naphthyrin-2-yl-propionyl)-1,2,3,3a,8,8a-hexahydro-2-aza-cyclopenta[a]inden-8-yl]-acetic acid]
260 ± 60 nM | 290 ± 90 nM |  |  | O=C(O)CC1c2ccccc2C2CN(C(=O)CCc3ccc4c(n3)NCCC4)CC12 (single isomer, unassigned) [Cpd 13, [2-(3-5,6,7,8-Tetrahydro-[1,8]naphthyrin-2-yl-propionyl)-1,2,3,3a,8,8a-hexahydro-2-aza-cyclopenta[a]inden-8-yl]-acetic acid]
15 ± 2 nM | 26 ± 8 nM |  |  | O=C(O)CC1c2ccccc2C2CN(C(=O)CCc3ccc4c(n3)NCCC4)CC12 (racemic) [Cpd 12]
1020 ± 180 nM | 66 ± 6 nM |  |  | O=C(O)C[C@@H]1c2ccccc2[C@@H]2CN(C(=O)Cc3cccc(NC4=NCCCN4)c3)CC[C@H]12 (single isomer, unassigned) [Cpd 1, (3-{2-[3-(1,4,5,6,-Tetrahydro-pyrimidin-2-ylamino)-phenyl]-acetyl}-2,3,4,4a,9,9a-hexahydro-1H-3-aza-fluoren-9-yl)-acetic acid]
217 ± 5 nM | 126 ± 40 nM |  |  | O=C(O)C[C@H]1c2ccccc2[C@@H]2CN(C(=O)Cc3cccc(NC4=NCCCN4)c3)CC[C@H]12 (single isomer, unassigned) [Cpd 2, (3-{2-[3-(1,4,5,6,-Tetrahydro-pyrimidin-2-ylamino)-phenyl]-acetyl}-2,3,4,4a,9,9a-hexahydro-1H-3-aza-fluoren-9-yl)-acetic acid]
 | > 1 nM |  |  | O=C(O)CC1c2ccccc2C2CN(C(=O)CCCNc3ccccn3)CCC12 (stereo not drawn) [Cpd 6, {3-[4-(Pyridin-2-ylamino)-butyryl]-2,3,4,4a,9,9a-hexahydro-1H-3-aza-fluoren-9-yl}-acetic acid]
 |  | 51% @ 50 μM |  | O=C(O)CC1c2ccccc2C2CCN(C(=O)CCCc3ccc4c(n3)NCCC4)CC21 (stereo not drawn) [Cpd 10, [2-(4-5,6,7,8-Tetrahydro-[1,8]naphthyridine-2-yl-butyryl)-2,3,4,4a,9,9a-hexahydro-1H-indeno[2,1-c]pyridin-9-yl]-acetic acid]
230 ± 40 nM | 85 ± 8 nM |  |  | O=C(O)CC1c2ccccc2C2CN(C(=O)CCCc3ccc4c(n3)NCCC4)CCC12 (racemic) [Cpd 3]
189 nM | 87 nM |  |  | O=C(O)CC1c2ccccc2C2CN(C(=O)CCc3ccc4c(n3)NCCC4)CCC12 (racemic) [Cpd 4]
 | > 1 nM |  |  | O=C(O)CC1c2ccccc2C2CCN(C(=O)CCc3ccc4c(n3)NCCC4)CC21 (racemic) [Cpd 11]
 |  |  | > 1 nM | O=C(O)CC1c2ccccc2C2CN(C(=O)CCCNc3ccccn3)CCC12 (stereo not drawn) [Cpd 7, {3-[4-(Pyridin-2-ylamino)-butyryl]-2,3,4,4a,9,9a-hexahydro-1H-3-aza-fluoren-9-yl}-acetic acid]
